Ends that are not written are not given here.
Assays:
Assay in all cases: Plate bactericidal experiment (colony counting)
Format in all cases: cell-based
Details in all cases: 22-712 μg/ml tested
[1] = system: Escherichia coli (E. coli) ATCC 25922
Method: (§1) The Escherichia coli (E. coli) ATCC 25922, Staphylococcus aureus (S. aureus) ATCC 25923, and Acinetobacter baumannii (A. baumannii) ATCC 19606 used in our experiments were preserved in our laboratory. Bacteria were cultured in LB liquid medium at 37°C for 8–12 h. Then, the cultures were centrifuged at 4,000 rpm for 5 min and washed three times with PBS. Eventually, the bacterial solutions were diluted to different concentrations for testing (10–1.00 × 10^9 cfu/ml). First, 100 μl of CWR11-AuNC solution was added to an E. coli or S. aureus suspension (1 × 10^5 cfu/ml). After 1 h of incubation, 10 μl of bacterial suspension was inoculated on an LB solid agar plate and placed at 37°C for 24 h before the number of colonies was counted. In addition, different concentrations of CWR11-AuNCs were added to the bacterial suspensions (McFarland turbidity of 0.5) and placed at 37°C for 18–24 h. Bacterial viability was determined by measuring the absorbance at 600 nm.

[2] = system: Staphylococcus aureus (S. aureus) ATCC 25923
Method: as §1

[3] = system: Acinetobacter baumannii (A. baumannii) ATCC 19606

CWFWKWWRRRRR [CWR11]
significantly reduced the activity: effect on activity of E. coli [1] | effect on activity of S. aureus [2] | effect on activity of A. baumannii [3]

From paper PMC9589054, “One-step synthesized antimicrobial peptide-functionalized gold nanoclusters for selective imaging and killing of pathogenic bacteria” (Frontiers in Microbiology, 2022)
